As a reminder, the inhibition is the change of the read-out against control, counted positive when it falls. A high value points to a response far below the control.

SMILES strings stand for the structures.

The target of this experiment is T1, PDE4B (Homo sapiens, UniProt Q07343).
T1 construct: hexa-histidine (His6) (N); made in house
T1 sequence (Q07343 330-659 limits assumed, species assumed): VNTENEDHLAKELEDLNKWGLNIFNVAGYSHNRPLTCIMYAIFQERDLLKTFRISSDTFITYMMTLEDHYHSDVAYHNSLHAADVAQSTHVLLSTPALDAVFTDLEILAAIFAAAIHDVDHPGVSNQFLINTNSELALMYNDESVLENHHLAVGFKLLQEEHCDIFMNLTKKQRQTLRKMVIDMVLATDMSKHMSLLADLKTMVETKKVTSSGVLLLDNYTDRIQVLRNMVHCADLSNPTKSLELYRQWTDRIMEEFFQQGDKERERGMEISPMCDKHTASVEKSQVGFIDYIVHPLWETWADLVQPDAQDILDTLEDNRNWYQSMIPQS
Put plainly: PDE4 IMAP Assay. The class given is biochemical. The settings on record: catalytic domain of PDE4B, fluorescence polarization. The source says:
Compounds may be screened for functional potency in in vitro biochemical assays for their ability to inhibit the activity of phosphodiesterase (PDE) enzymes. A commercial PDE assay, Molecular Device's PDE IMAP assay, was modified and utilized to measure the inhibitory activity of compounds on PDE isoforms. The IMAP technology is based on the high affinity binding of phosphate by immobilized metal (MIII) coordination complexes on nanoparticles. This IMAP “binding reagent” complexes with phosphate groups on the nucleotide monophosphates generated in the reaction. Such binding causes a change in the rate of the molecular motion of the nucleotide, and results in an increase in the fluorescence polarization value observed for the fluorescent label attached to the substrate. PDE inhibitors prevent the generation of nucleotide monophosphates and the subsequent increase in polarization value observed for the fluorescent label attached to the substrate. The catalytic domain of PDE4B was fused to an amino-terminus hex-histadine affinity tag and purified. PDE4B enzyme was incubated with compounds for 10 minutes. Fluorescently labeled cyclic AMP substrates were then added to the PDE enzyme mix and incubated for 2 hours at room temperature. IMAP binding reagent was then added to the enzyme mix, incubated for 10-30 minutes and fluorescent polarization of the fluorescently labeled substrate was read either with the Perkin Elmer Viewlux or Molecular Devices Acquest or Analyst. Roflumilast and Rolipram are the positive controls used in the assay.
For orientation: Fluorescence polarisation rises when a labelled molecule tumbles more slowly, as on binding a larger partner.
The molecule `COc1ccc(C2CC(c3ccc(OC)c(OC)c3)=NN2C(C)=O)cc1` (centres unmarked) [Example 103, 1-(3-(3,4-dimethoxyphenyl)-5-(4-methoxyphenyl)-4,5-dihydro-1H-pyrazol-1-yl)ethanone] returned an inhibition at 10 µM below 50%.

The molecule `COc1ccc2cc(C3CC(c4ccc(OC)c(OC)c4)=NN3C(=O)CCCC(=O)O)c(Cl)nc2c1` (centres unmarked) [Example 17, 5-(5-(2-chloro-7-methoxyquinolin-3-yl)-3-(3,4-dimethoxyphenyl)-4,5-dihydro-1H-pyrazol-1-yl)-5-oxopentanoic acid] registered an inhibition at 10 µM below 50%. Under `COc1ccc(C2=NN(C(=O)CCC(=O)O)C(c3ccc(C)cc3)C2)cc1OC` (centres unmarked) [Example 71, 4-(3-(3,4-dimethoxyphenyl)-5-p-tolyl-4,5-dihydro-1H-pyrazol-1-yl)-4-oxobutanoic acid] stands below 50%; under `COc1ccc(C2=NN(C(C)=O)C(c3ccc(F)cc3)C2)cc1OC` (centres unmarked) [Example 102, 1-(3-(3,4-dimethoxyphenyl)-5-(4-fluorophenyl)-4,5-dihydro-1H-pyrazol-1-yl)ethanone], at least 50%. Molecule `COc1ccc(C2=NN(S(=O)(=O)c3ccccc3)C(c3ccccc3OC)C2)cc1OC` (centres unmarked) [Example 61, 3-(3,4-dimethoxyphenyl)-5-(2-methoxyphenyl)-1-(phenylsulfonyl)-4,5-dihydro-1H-pyrazole] returned an inhibition at 10 µM below 50%. The value for `COc1ccc(C2=NN(S(=O)(=O)c3ccc(C)cc3)C(c3ccccc3OC)C2)cc1OC` (centres unmarked) [Example 93, 3-(3,4-dimethoxyphenyl)-5-(2-methoxyphenyl)-1-tosyl-4,5-dihydro-1H-pyrazole] was below 50%; that for `COc1ccc(C2=NN(S(C)(=O)=O)C(c3c(F)cccc3Cl)C2)cc1OC` (centres unmarked) [Example 3, 5-(2-chloro-6-fluorophenyl)-3-(3,4-dimethoxyphenyl)-1-(methylsulfonyl)-4,5-dihydro-1H-pyrazole] was below 50%. `COc1ccc(C2=NN(S(=O)(=O)c3ccc(C)cc3)C(c3cn(-c4ccccc4)nc3-c3ccccc3)C2)cc1OC` (centres unmarked) [Example 24, 4-(3-(3,4-dimethoxyphenyl)-1-tosyl-4,5-dihydro-1H-pyrazol-5-yl)-1,3-diphenyl-1H-pyrazole] returned an inhibition at 10 µM below 50%. `COc1ccc2cc(C3CC(c4ccc(OC)c(OC)c4)=NN3C(=O)c3ccco3)c(Cl)nc2c1` (centres unmarked) [Example 10, (5-(2-chloro-7-methoxyquinolin-3-yl)-3-(3,4-dimethoxyphenyl)-4,5-dihydro-1H-pyrazol-1-yl)(furan-2-yl)methanone] had an inhibition at 10 µM below 50%. The value for `COc1ccc(C2=NN(S(=O)(=O)c3ccccc3)C(c3cccc([N+](=O)[O-])c3)C2)cc1OC` (centres unmarked) [Example 53, 3-(3,4-dimethoxyphenyl)-5-(3-nitrophenyl)-1-(phenylsulfonyl)-4,5-dihydro-1H-pyrazole] was below 50%.

In turn, `COc1ccc(C2=NN(S(=O)(=O)c3ccc(C)cc3)C(c3ccccc3)C2)cc1OC` (centres unmarked) [Example 62, 3-(3,4-dimethoxyphenyl)-5-phenyl-1-tosyl-4,5-dihydro-1H-pyrazole] gave an inhibition at 10 µM below 50%. Under `COc1ccc(C2=NN(S(=O)(=O)c3ccc(C)cc3)C(c3ccc(C)cc3)C2)cc1OC` (centres unmarked) [Example 57, 3-(3,4-dimethoxyphenyl)-5-p-tolyl-1-tosyl-4,5-dihydro-1H-pyrazole] stands below 50%; under `COc1ccc(C2=NN(S(=O)(=O)c3ccc(C)cc3)C(c3cccc(OC)c3OC)C2)cc1OC` (centres unmarked) [Example 91, 5-(2,3-dimethoxyphenyl)-3-(3,4-dimethoxyphenyl)-1-tosyl-4,5-dihydro-1H-pyrazole], below 50%; under `COc1cccc(C2CC(c3ccc(OC)c(OC)c3)=NN2S(C)(=O)=O)c1` (centres unmarked) [Example 4, 3-(3,4-dimethoxyphenyl)-5-(3-methoxyphenyl)-1-(methylsulfonyl)-4,5-dihydro-1H-pyrazole], below 50%. Under `COc1ccc(C2=NN(C(C)=O)C(c3cccc(OC)c3OC)C2)cc1OC` (centres unmarked) [Example 101, 1-(5-(2,3-dimethoxyphenyl)-3-(3,4-dimethoxyphenyl)-4,5-dihydro-1H-pyrazol-1-yl)ethanone] stands below 50%; under `COc1ccc(C2=NN(S(=O)(=O)c3ccc(C)cc3)C(c3ccc(F)cc3)C2)cc1OC` (centres unmarked) [Example 55, 3-(3,4-dimethoxyphenyl)-5-(4-fluorophenyl)-1-tosyl-4,5-dihydro-1H-pyrazole], below 50%; under `COc1ccc(C2=NN(S(=O)(=O)c3ccccc3)C(c3ccccc3Cl)C2)cc1OC` (centres unmarked) [Example 59, 5-(2-chlorophenyl)-3-(3,4-dimethoxyphenyl)-1-(phenylsulfonyl)-4,5-dihydro-1H-pyrazole], below 50%. In turn, `COc1ccc2cc(C3CC(c4ccc(OC)c(OC)c4)=NN3C(C)=O)c(Cl)nc2c1` (centres unmarked) [Example 23, 1-(5-(2-chloro-7-methoxyquinolin-3-yl)-3-(3,4-dimethoxyphenyl)-4,5-dihydro-1H-pyrazol-1-yl)ethanone] displayed an inhibition at 10 µM below 50%. The value for `COc1ccc(C2=NN(S(=O)(=O)c3ccccc3)C(c3ccc(F)cc3)C2)cc1OC` (centres unmarked) [Example 54, 3-(3,4-dimethoxyphenyl)-5-(4-fluorophenyl)-1-(phenylsulfonyl)-4,5-dihydro-1H-pyrazole] was below 50%. For the molecule `COc1ccc2nc(Cl)c(C3CC(c4ccc(OC)c(OC)c4)=NN3C(=O)c3ccccc3)cc2c1` (centres unmarked) [Example 7, (5-(2-chloro-6-methoxyquinolin-3-yl)-3-(3,4-dimethoxyphenyl)-4,5-dihydro-1H-pyrazol-1-yl)(phenyl)methanone], the inhibition at 10 µM was below 50%. As to `CCc1ccc(C2CC(c3ccc(OC)c(OC)c3)=NN2C(C)=O)cc1` (centres unmarked) [Example 21, 1-(3-(3,4-dimethoxyphenyl)-5-(4-ethylphenyl)-4,5-dihydro-1H-pyrazol-1-yl)ethanone], the inhibition at 10 µM was below 50%. Under `COc1ccc(OC)c(C2CC(c3ccc(OC)c(OC)c3)=NN2C(=O)CCCC(=O)O)c1` (centres unmarked) [Example 64, 5-(5-(2,5-dimethoxyphenyl)-3-(3,4-dimethoxyphenyl)-4,5-dihydro-1H-pyrazol-1-yl)-5-oxopentanoic acid] stands below 50%; under `COc1ccc(C2=NN(S(=O)(=O)c3ccc(C)cc3)C(c3cccc([N+](=O)[O-])c3)C2)cc1OC` (centres unmarked) [Example 52, 3-(3,4-dimethoxyphenyl)-5-(3-nitrophenyl)-1-tosyl-4,5-dihydro-1H-pyrazole], below 50%; under `COc1ccc(OC)c(C2CC(c3ccc(OC)c(OC)c3)=NN2C(=O)c2ccccc2Cl)c1` (centres unmarked) [Example 29, (2-chlorophenyl)(5-(2,5-dimethoxyphenyl)-3-(3,4-dimethoxyphenyl)-4,5-dihydro-1H-pyrazol-1-yl)methanone], below 50%. Under `COc1ccc(C2=NN(C(=O)c3ccccc3)C(c3ccc(N(C)C)cc3)C2)cc1OC` (centres unmarked) [Example 37, (3-(3,4-dimethoxyphenyl)-5-(4-(dimethylamino)phenyl)-4,5-dihydro-1H-pyrazol-1-yl)(phenyl)methanone] stands below 50%. `COc1ccc(C2=NN(C(C)=O)C(c3cc4cccc(C)c4nc3Cl)C2)cc1OC` (centres unmarked) [Example 76, 1-(5-(2-chloro-8-methylquinolin-3-yl)-3-(3,4-dimethoxyphenyl)-4,5-dihydro-1H-pyrazol-1-yl)ethanone] gave an inhibition at 10 µM below 50%.

These data come from patent US20100105729A1, “ARYL-SUBSTITUTED HETEROCYCLIC PDE4 INHIBITORS AS ANTI-INFLAMMATORY AGENTS” (KALYPSYS, INC., priority 2006, published 2010).
